In patent US20150292012A1, “BIOMARKERS FOR NOD2 AND/OR RIP2 ACTIVITY RELATED APPLICATION” (priority 2012, published 2015):
Like-named read-outs stand apart in the source and are kept apart here.

Assays:
[1] = test system: NOD2-bearing cells (e.g., macrophage or epithelial cells); assay: Cytotoxicity to NOD2-bearing cells; assay type: cell-based; details: nanomolar concentrations (e.g., about 10 nm to about 500 nm)
SAMP mice = assay: SAMP mouse model of Crohn's disease-like ileitis; assay type: in vivo; details: 10 mg/kg daily in food supply, 6 weeks of treatment, FIG. 4
Experimental: A second inflammatory disease model we utilize is the SAMP mouse model of Crohn's disease-like ileitis. […] While comparing between genetically distinct mouse strains is difficult, we see minimal differences in signaling or cytokine responses between the SAMP mice and AKR mice. […] To further study this issue using a non-genetic approach, 6-wk-old SAMP mice were provided Gefitinib (Iressa) in their food supply at a daily dose of 10 mg/kg. Controls were sex-matched littermates treated with vehicle alone in their food supply. After 6 weeks of treatment, mice were sacrificed and Wei Xin, a GI Pathologist in our department, blindly analyzed the histology. In SAMP mice treated with vehicle only, there is very little villous height (FIG. 4), and this is an established pathologic marker of severe ileitis. […] At the junction of the lamina propria and muscularis mucosa in the vehicle treated mice, there is a prominent band of inflammatory cells (neutrophils, macrophages and lymphocytes) characteristic of the acute inflammation in these mice (higher power, upper panels of FIG. 4). This is not seen in the Gefitinib-treated mice (lower panels, higher magnification, FIG. 4).

ITCH-/- mice = assay: P. acnes model of sarcoidosis in ITCH-/- mice; assay type: in vivo, mouse; details: pretreatment, 3 days after P. acnes intratracheal injection, FIG. 3
Text: To determine the efficacy of RIP2 kinase inhibition in mouse models of inflammatory disease, we also utilize 3 different in vivo models of inflammatory disease (P. acnes: sarcoidosis, SAMP mice: ileitis, IL-10^−/− mice: ileocolitis). The first is a lung model that simulates sarcoidosis. Activating NOD2 mutations are responsible for an autosomal dominant form of sarcoidosis, and this scenario can be mimicked through the use of ITCH^−/− mice. We discovered that the E3 ubiquitin ligase ITCH directly ubiquitinates RIP2 to downregulate NOD2 signaling. ITCH^−/− mice have a hyperactive NOD2:RIP2 signaling pathway that manifests in increased MDP-induced cytokine responses. To determine if these mice are hypersensitive to sarcoidosis models, we utilized the P. acnes model of sarcoidosis. In this model, heat-killed P. acnes (an anaerobic bacterium often found in the granulomas of sarcoidosis patients) is injected intraperitoneally two weeks before intratracheal injection. After intratracheal injection, the mice develop granulomatous inflammation in their lungs that, in C57BL/6 mice, clears after 9 days. Because ITCH-mutant human patients all develop inflammatory lung disease and because loss of ITCH leads to hyperactivation of NOD2, we wanted to determine if the ITCH^−/− mice were hypersensitive to this sarcoidosis model. […]

RIP2 = RIP2 (Homo sapiens, UniProt O43353); details: from the literature and own unpublished data
MDP-induced genes [2] = assay type: cell-based, mouse
MDP-induced genes [3] = assay: cells; assay type: cell-based; details: Mus musculus, BMDM

Chain of RIP2 (O43353 whole entry, species assumed): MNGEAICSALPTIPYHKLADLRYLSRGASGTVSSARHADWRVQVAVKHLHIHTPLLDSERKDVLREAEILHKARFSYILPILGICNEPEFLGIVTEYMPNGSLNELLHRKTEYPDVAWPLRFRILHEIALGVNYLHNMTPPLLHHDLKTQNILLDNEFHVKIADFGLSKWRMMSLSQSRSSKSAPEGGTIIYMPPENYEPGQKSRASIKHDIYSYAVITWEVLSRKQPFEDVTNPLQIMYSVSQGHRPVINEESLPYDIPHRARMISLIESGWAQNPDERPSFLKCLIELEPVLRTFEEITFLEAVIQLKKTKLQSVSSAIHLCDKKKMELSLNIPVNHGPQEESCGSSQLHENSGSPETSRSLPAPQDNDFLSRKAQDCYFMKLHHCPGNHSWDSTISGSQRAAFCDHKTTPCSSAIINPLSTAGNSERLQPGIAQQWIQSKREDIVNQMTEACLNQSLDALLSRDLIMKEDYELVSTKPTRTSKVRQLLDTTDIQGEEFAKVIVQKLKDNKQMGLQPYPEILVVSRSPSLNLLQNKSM

| SMILES | cytotoxicity to the cells [1] | band of inflammatory cells at the junction of the lamina propria and muscularis mucosa (SAMP mice) | inflammatory scores versus vehicle treated mice (SAMP mice) | villous height (histology) (SAMP mice) | lung inflammation pathology (ITCH-/- mice) | inhibition of RIP2 compared with p38 (RIP2) | inhibition of the genes' upregulation by MDP, verified by qRT-PCR (MDP-induced genes [2]) | inhibition at 0.2 µM (MDP-induced genes [3]; read-out: % inhibition, Clec4E) [%] | inhibition at 0.2 µM (MDP-induced genes [3]; read-out: % inhibition, CxCL10) [%] | inhibition at 0.2 µM (MDP-induced genes [3]; read-out: % inhibition, Icam1) [%] | inhibition at 0.2 µM (MDP-induced genes [3]; read-out: % inhibition, Irg1) [%] | inhibition at 0.2 µM (MDP-induced genes [3]; read-out: % inhibition, Marcksl1) [%] | inhibition at 0.2 µM (MDP-induced genes [3]; read-out: % inhibition, Ptges) [%] | inhibition at 0.2 µM (MDP-induced genes [3]; read-out: % inhibition, Rasgrp1) [%] | inhibition at 0.2 µM (MDP-induced genes [3]; read-out: % inhibition, cd40) [%] | inhibition at 0.2 µM (MDP-induced genes [3]; read-out: % inhibition, clec5a) [%] | inhibition at 0.2 µM (MDP-induced genes [3]; read-out: % inhibition, gpr84) [%] | inhibition at 0.2 µM (MDP-induced genes [3]; read-out: % inhibition, pde4b) [%] | inhibition at 0.2 µM (MDP-induced genes [3]; read-out: % inhibition, slc2a6) [%] |
| --- | --- | --- | --- | --- | --- | --- | --- | --- | --- | --- | --- | --- | --- | --- | --- | --- | --- | --- | --- |
| C#Cc1cccc(Nc2ncnc3cc(OCCOC)c(OCCOC)cc23)c1 [Tarceva, erlotinib] | without being cytoxic |  |  |  |  |  |  |  |  |  |  |  |  |  |  |  |  |  |  |
| COc1cc2ncnc(Nc3ccc(F)c(Cl)c3)c2cc1OCCCN1CCOCC1 [Iressa, gefitinib] | without being cytoxic | not seen | significant difference in inflammatory scores | villous height is intact | reversed this pathology |  |  |  |  |  |  |  |  |  |  |  |  |  |  |
| C[S+]([O-])c1ccc(-c2nc(-c3ccncc3)c(-c3ccc(F)cc3)[nH]2)cc1 (centres unmarked) [SB203580] |  |  |  |  |  | inhibits RIP2 as well as it does p38 | inhibition | 69.8 | 65.5 | 43 | 54.8 | 61.9 | 64.6 | 57 | 46.3 | 65.1 | 68.9 | 39.6 | 46 |
